Calls of active or inactive are those of the source. The rule behind the calls is not given here.
What was measured:
[1] = Antioxidant activity assessed as reducing capacity of DTNB at 20 uM after 30 mins in presence of Cu2++; type: functional; design: scale not given: the % may be the effect or the level left
[2] = Antioxidant activity assessed as reducing capacity of Iodine solution at 0.25mM after 30 mins in presence of Cu2++; type: functional; design: scale not given: the % may be the effect or the level left
[3] = Antioxidant activity assessed as ABTS radical scavenging activity at 4 uM after 30 mins in presence of Cu2++; type: functional
[4] = test system: Radical scavenging activity; assay: Antioxidant activity assessed as DPPH radical scavenging activity at 36 uM after 30 mins in presence of Cu2++; type: functional
[5] = Antioxidant activity assessed as reducing capacity of DTNB at 20 uM after 60 mins in presence of Cu2++; type: functional
[6] = Antioxidant activity assessed as reducing capacity of Iodine solution at 0.25 mM after 60 mins in presence of Cu2++; type: functional
[7] = Antioxidant activity assessed as reducing capacity of Iodine solution at 0.25 mM after 120 mins in presence of Cu2++; type: functional
[8] = Induction of ascorbic acid oxidation preincubated for 3 mins in presence of Cu2++; type: physicochemical; design: concentration or dose not given beside the values; details: 0.05 h
[9] = Induction of ascorbic acid oxidation preincubated for 30 mins in presence of Cu2++; type: physicochemical; design: concentration or dose not given beside the values; details: 0.5 h
[10] = Induction of ascorbic acid oxidation preincubated for 60 mins in presence of Cu2++; type: physicochemical; design: concentration or dose not given beside the values; details: 1 h
[11] = Induction of ascorbic acid oxidation preincubated for 300 mins in presence of Cu2++; type: physicochemical; design: concentration or dose not given beside the values; details: 5 h
[12] = Effect on CU2+-mediated superoxide-dependent cytochrome c reduction at 10 to 30 uM; type: physicochemical
[13] = Effect on CU2+-mediated superoxide-dependent lucigenin reduction by chemiluminescence assay at 10 to 30 uM; type: physicochemical
[14] = Antioxidant activity assessed as ABTS radical scavenging activity after 30 mins in absence of Cu2+; type: functional
[15] = test system: Radical scavenging activity; assay: Antioxidant activity assessed as DPPH radical scavenging activity after 40 mins in absence of Cu2+; type: functional
[16] = Antioxidant activity assessed as ABTS radical scavenging activity at 4 uM after 3 mins in presence of Cu2+; type: functional
[17] = test system: Radical scavenging activity; assay: Antioxidant activity assessed as DPPH radical scavenging activity at 36 uM after 3 mins in presence of Cu2++; type: functional

Structure (SMILES)	Activity [8] [%]	Activity [9] [%]	Activity [10] [%]	Activity [11] [%]	Activity [12]	Activity [13]	Activity [1] [%]	Activity [2] [%]	Activity [3] [%]	Activity [4] [%]	Activity [5]	Activity [6]	Activity [7]	Activity [14]	Activity [15]	Activity [16]	Activity [17]
N[C@@H](CS)C(=O)NCC(=O)O	79.8	92.28	94.31	94.33	Active	Active	0	20	33	88	Active	Active	inactive	Dose-dependent effect	Dose-dependent effect	Active	Active
N[C@@H](CCC(=O)N[C@@H](CS)C(=O)O)C(=O)O	81.4	87.4	89.6	97.6	Active		26	24	29	54				Dose-dependent effect	Dose-dependent effect	Active	Active
N[C@@H](CS)C(=O)O [CYSTEINE]	74.35	77.34	80.35	80.36	Active		24	23	44	92				Dose-dependent effect	Dose-dependent effect	Active	Active

The next lines start with results.

Activity [8] [%]	Activity [9] [%]	Activity [10] [%]	Activity [11] [%]	Activity [12]	Activity [13]	Structure (SMILES)	Activity [1] [%]	Activity [2] [%]	Activity [3] [%]	Activity [4] [%]	Activity [5]	Activity [6]	Activity [7]	Activity [14]	Activity [15]	Activity [16]	Activity [17]
81.3	83.2	84.2	85.4	Active	Active	N[C@@H](CCC(=O)N[C@@H](CS)C(=O)NCC(=O)O)C(=O)O [GLUTATHIONE]	36	31	55	76				Dose-dependent effect	Dose-dependent effect	Active	Active
81.1	84.1	86.1	85.3	Active	Active	N[C@@H](CCS)C(=O)O [L-HOMOCYSTEINE]	40	30	31	72				Dose-dependent effect	Dose-dependent effect	Active	Active

Source: ChEMBL document CHEMBL1142539, “Double edge redox-implications for the interaction between endogenous thiols and copper ions: In vitro studies” (Bioorg Med Chem, 2008)
